The test system of data set [1] is Souris. Description: antireserpine activity: reserpine hypothermia. The following applies: réserpine 5 mg/kg i.p. 17 h before; for change in vivo at 50 mg/kg / change in vivo at 150 mg/kg: ip, 4 h, read-out: % d'augmentation par rapport aux témoins. The format is in vivo. As for the experimental part:
On note ensuite les températures témoins (réserpine), puis les températures 1, 2, 3 et 4 heures après l'administration des produits étudiés.
Les animaux sont répartis en lots de 4 animaux et reçoivent par voie intrapéritonéale la réserpine à une dose de 5 mg/kg. 17 heures après cette injection, on mesure la température corporelle de l'animal à l'aide d'une sonde thermocouple introduite dans le rectum; chaque lot reçoit ensuite la substance par voie intrapéritonéale. Le lot témoin reçoit la même quantité de solvant et par la même voie. La température corporelle est ensuite mesurée toutes les heures pendant 4 heures.
Les résultats sont rassemblés dans un tableau récapitulatif-où sont indiqués : • - la température moyenne pour chaque lot relevée 17 heures après l'injection de la réserpine, • - la moyenne des variations de température pour chaque lot relevées 1,2, 3 et 4 heures après l'injection de la substance étudiée, • - la somme des variations de températures pendant 4 heures, • - le pourcentage d'augmentation de la température pour chaque produit par rapport aux témoins.

The test system of data set [2] is Souris. Description: tetrabenazine hypothermia. The format is in vivo. The note with it: product i.p. 80 mg/kg 30 min before tétrabénazine 32 mg/kg i.v. The method, then:
(§1) Ce test permet de révéler également une activité antidépressive avec l'avantage d'une lecture plus rapide qu'avec la réserpine.
Les produits sont injectés 30 minutes avant l'administration de tétrabénazine.
Les températures sont relevées aux temps : 0, 30 minutes, 60 minutes, 90 minutes et 120 minutes.
(§2) Les souris sont réparties par lots de 5.
Les températures sont relevées avant l'injection de tétrabénazine, 30 minutes, 60 minutes, 90 minutes et 120 minutes après.
(§3) Le lot témoin comprend 20 souris.

Data set [3] in a line: acute toxicity in the mouse, intraperitoneal. The format is in vivo, Souris. The following applies: mouse, in vivo, ip, voie intrapéritonéale; for LD50 at 48 h: souris femelles, read-out: DL 50; for mortality at 48 h: read-out: Mortalité %. An excerpt: (§4) Les produits ont été administrés par voie intrapéritonéale à des souris femelles dont le poids variait de 18 à 30 g.
(§5) Les animaux injectés ont été maintenus dans une salle thermostatée, nourris et abreuvés à volonté.
(§6) La mortalité a été relevée à 1 heure, 4 heures, 24 heures et 48 heures.

Data set [4] deals with souris femelles. Description: acute toxicity in the mouse, intraperitoneal. The format is in vivo. The following applies: voie intrapéritonéale, dead mice of the group.
Excerpt: as §4, §5, §6

Data set [5] deals with Souris. In words: tetrabenazine ptosis. The format is in vivo. The following applies: product i.p. 100 mg/kg 30 min before tétrabénazine 32 mg/kg i.v. The method, then: as §1, §2
Le ptosis est noté avant l'injection de tétrabénazine, 30 minutes, 60 minutes, 90 minutes et 120 minutes après.
On a adopté la notation suivante : • - 0 : pour un oeil ouvert, • - 1 : pour un oeil fermé au quart, • - 2 : pour un oeil fermé à moitié, • - 3 : pour un oeil fermé aux trois-quarts, • - 4 : pour un oeil fermé complètement.
as §3

Experimental findings from patent EP0063525A1, “Dibenzazepine tetracyclic derivatives, process for their preparation and pharmaceutical compositions containing them” (CENTRE NATIONAL DE LA RECHERCHE SCIENTIFIQUE (CNRS), priority 1981, dated 1982) are described below.

Where two headings read alike, the source gives them in different places.

`O=C(O)CCCCCCNC1c2ccccc2CCc2ccccc21` [Aminep-tine, amineptine, reference compound]: in data set [1] (product i.p. 80 mg/kg), the “variation de température T=1h” value is recorded as “+1,5”, the “variation de température T= 2h” value is “+1,6”, the “variation de température T=3h” value was “+1” and the “variation de température T=4h” value is on record as “+0,1”. The inhibition in vivo at 80 mg/kg in data set [2] (ip, 2 h, hypothermie, read-out: % de protection) is 51%. Moreover, in data set [2], the “Température après tétrabénazine 30 minutes” value is on record as -1,8, the “Température après tétrabénazine 60 minutes” value is reported as -1,8, the “Température après tétrabénazine 90 minutes” value is -1,1 and the “Température après tétrabénazine 120 minutes” value is given as -0,2. In addition, the “Température après tétrabénazine Total” value in data set [2] is -4,2.
`c1ccc(-c2nn(-c3ccccc3)c3c2-c2ccccc2Nc2ccccc2-3)cc1` [compound 12, diphényl-1,3 dihydro-1,8 (dibenzo[b,f]pyrazolo[3,4-d]) azépine]: in data set [3], the LD50 at 48 h was > 250 mg/kg. Moreover, the mortality at 48 h in data set [3] (125 mg/kg) worked out at 0%. The mortality at 48 h in data set [3] (250 mg/kg) is 0%. In data set [4] (125 mg/kg), the “Mortalité en 1 heure” value is on record as 0 and the “Mortalité en 48 h.” value was found to be 0. In data set [4] (250 mg/kg), the “Mortalité en 1 heure” value worked out at 0 and the “Mortalité en 48 h.” value is reported as 0. Moreover, in data set [1] (product i.p. 50 mg/kg), the change in vivo at 50 mg/kg is 10%, the “variation de température T= 2h” value is given as “+0,4”, the “variation de température T=3h” value is “+0,3” and the “variation de température T=4h” value is “+0,4”.
As to `CN(C)CCCN1c2ccccc2-c2c(-c3ccccc3)nn(-c3ccccc3)c2-c2ccccc21` [compound 14, (γ-diméthylaminopropyl)-8-diphényl-1,3 dihydro-1,8 (dibenzo [b,f]pyrazolo [3,4-d])azépine], in data set [3], the LD50 at 48 h is 200 mg/kg. Besides, the mortality at 48 h in data set [3] (50 mg/kg) is 0%; in data set [3] (100 mg/kg) it was 0%; in data set [3] (250 mg/kg), 80%; in data set [3] (500 mg/kg) it was 100%. Also, the “Mortalité en 1 heure” value turned out to be 0 in data set [4] (50 mg/kg), 0 in data set [4] (100 mg/kg), 2 in data set [4] (250 mg/kg) and 3 in data set [4] (500 mg/kg). Further, the “Mortalité en 48 h.” value worked out at 0 in data set [4] (50 mg/kg), 0 in data set [4] (100 mg/kg), 4 in data set [4] (250 mg/kg) and 5 in data set [4] (500 mg/kg). In addition, the change in vivo at 150 mg/kg in data set [1] (product i.p. 150 mg/kg) stood at 40%. Further, the “variation de température T=1h” value in data set [1] (product i.p. 150 mg/kg) is listed as “+1,5”. Also, the “variation de température T= 2h” value in data set [1] (product i.p. 150 mg/kg) was “+0,6”. In data set [1] (product i.p. 150 mg/kg), the “variation de température T=3h” value is recorded as “+0,6”. Besides, the “variation de température T=4h” value in data set [1] (product i.p. 150 mg/kg) is “+0,1”.
In the case of `CN(C)CCN1c2ccccc2-c2onc(-c3ccccc3)c2-c2ccccc21` [compound 17, (β-diméthylaminoéthyl)-8 phényl-3 (dibenzo [b,f]isoxazolo [4,5-d]) 8H azépine], in data set [3], the LD50 at 48 h amounted to 175 mg/kg. Further, the mortality at 48 h was determined as 0% in data set [3] (50 mg/kg); 0% in data set [3] (100 mg/kg); 0% in data set [3] (150 mg/kg); 100% in data set [3] (200 mg/kg); 100% in data set [3] (250 mg/kg). Further, the “Mortalité en 1 heure” value in data set [4] (50 mg/kg) came to 0; in data set [4] (100 mg/kg) it was 0; in data set [4] (150 mg/kg) it was 0; in data set [4] (200 mg/kg), 5; in data set [4] (250 mg/kg), 4. In addition, the “Mortalité en 48 h.” value was 0 in data set [4] (50 mg/kg); 0 in data set [4] (100 mg/kg); 0 in data set [4] (150 mg/kg); 5 in data set [4] (200 mg/kg); 5 in data set [4] (250 mg/kg). Also, the change in vivo at 50 mg/kg in data set [1] (product i.p. 50 mg/kg) was 0%. Moreover, in data set [1] (product i.p. 150 mg/kg), the change in vivo at 150 mg/kg is 300%.
For the molecule `CC(CN(C)C)CN1c2ccccc2-c2onc(-c3ccccc3)c2-c2ccccc21` (centres unmarked) [compound 19, (méthyl-2 diméthylamino-3 propyl)-8 phényl-,3 (dibenzo [b ,f]isoxazolo [3 ,4-d]) 8H azépine], in data set [3], the LD50 at 48 h is 175 mg/kg. Further, in data set [3] (50 mg/kg), the mortality at 48 h was 0%. Also, the mortality at 48 h in data set [3] (100 mg/kg) came to 0%. Moreover, the mortality at 48 h in data set [3] (250 mg/kg) is 60%. In addition, the mortality at 48 h in data set [3] (500 mg/kg) is 100%. In data set [4] (50 mg/kg), the “Mortalité en 1 heure” value was 0 and the “Mortalité en 48 h.” value was 0. Moreover, in data set [4] (100 mg/kg), the “Mortalité en 1 heure” value was found to be 0 and the “Mortalité en 48 h.” value was 0. In addition, in data set [4] (250 mg/kg), the “Mortalité en 1 heure” value is on record as 1 and the “Mortalité en 48 h.” value is given as 3. In data set [4] (500 mg/kg), the “Mortalité en 1 heure” value stood at 5 and the “Mortalité en 48 h.” value is 5. Also, in data set [1] (product i.p. 150 mg/kg), the change in vivo at 150 mg/kg was 110%, the “variation de température T=1h” value is recorded as “+3,4”, the “variation de température T= 2h” value is reported as “+0,7” and the “variation de température T=3h” value is listed as “+0,7”. Further, in data set [1] (product i.p. 150 mg/kg), the “variation de température T=4h” value is listed as -0,6. Also, the inhibition in vivo at 100 mg/kg in data set [5] (ip, 2 h, ptosis, read-out: % de protection) stood at 16%. In data set [5], the “Ptosis Total” value was 25,3. In addition, in data set [5] (score 0-4 per eye), the “Ptosis 30 minutes” value is listed as 5, the “Ptosis 60 minutes” value is reported as 6,3, the “Ptosis 90 minutes” value is 6,7 and the “Ptosis 120 minutes” value is 7,3.
For `CN(C)CCCN1c2ccccc2C=Cc2ccccc21` [compound 21, (α-diméthylaminopropyl)-5 dibenzo [b,f] 5H azépine, reference compound], the LD50 at 48 h in data set [3] was 100 mg/kg. Besides, the mortality at 48 h in data set [3] (50 mg/kg) came to 0%; in data set [3] (75 mg/kg) it was 0%; in data set [3] (125 mg/kg), 100%; in data set [3] (250 mg/kg), 100%. In addition, the “Mortalité en 1 heure” value is listed as 0 in data set [4] (50 mg/kg), 0 in data set [4] (75 mg/kg), 5 in data set [4] (125 mg/kg) and 5 in data set [4] (250 mg/kg). The “Mortalité en 48 h.” value turned out to be 0 in data set [4] (50 mg/kg), 0 in data set [4] (75 mg/kg), 5 in data set [4] (125 mg/kg) and 5 in data set [4] (250 mg/kg). The change in vivo at 50 mg/kg in data set [1] (product i.p. 50 mg/kg) turned out to be 30%. The “variation de température T= 2h” value in data set [1] (product i.p. 50 mg/kg) is recorded as -0,1. Further, in data set [1] (product i.p. 50 mg/kg), the “variation de température T=3h” value was “+0,2”. Also, the “variation de température T=4h” value in data set [1] (product i.p. 50 mg/kg) is “+0,5”.
